US11059819B2, “Fused hetero-hetero bicyclic compounds and methods of use thereof” (Araxes Pharma LLC, priority 2017, dated 2021)

These compounds were tested against T1, KRAS G12C 1-169, his-tagged protein, GDP-loaded (Homo sapiens, UniProt P01116, G12C) (assay: Biochemical assay: covalent modification of KRAS G12C measured by mass spectrometry (RapidFire/TOF or Q-Exactive)). Conditions: compound concentration and incubation time not given.
T1 construct: KRAS G12C 1-169, his-tagged protein, GDP-loaded
T1 sequence (P01116 1-169 isoform P01116-2 G12C): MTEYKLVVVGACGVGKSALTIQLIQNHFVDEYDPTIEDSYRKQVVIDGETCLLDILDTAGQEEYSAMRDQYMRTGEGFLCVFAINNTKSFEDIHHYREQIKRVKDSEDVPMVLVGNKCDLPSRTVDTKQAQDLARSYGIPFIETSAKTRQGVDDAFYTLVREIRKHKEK
Type: binding
Experimental: Test compounds are prepared as 10 mM stock solutions in DMSO (Fisher cat #BP-231-100). KRAS G12C 1-169, his-tagged protein, GDP-loaded is diluted to 2 μM or 0.5 μM in buffer (20 mM Hepes, 150 mM NaCl, 1 mM MgCl2). Compounds are tested for activity as follows:
Compounds are diluted to 50× final test concentration in DMSO in 96-well storage plates. Compound stock solutions are vortexed before use and observed carefully for any sign of precipitation. Dilutions are as follow: • For 100 μM final compound concentration, compounds are diluted to 5000 μM (5 μL 10 mM compound stock+5 μL DMSO and mixed well by pipetting. • For 30 μM final compound concentration, compounds are diluted to 1500 μM (3 μI, 10 mM compound stock+17 μL DMSO) and mixed well by pipetting. • For 10 μM final compound concentration, compounds are diluted to 500 μM (2 μL 10 mM compound stock+38 μL DMSO) and mixed well by pipetting. 49 μL of the stock protein solution is added to each well of a 96-well PCR plate (Fisher cat #1423027). 1 μl of the diluted 50× compounds are added to appropriate wells in the PCR plate using 12-channel pipettor. Reactions are mixed carefully and thoroughly by pipetting up/down with a 200 μL multi-channel pipettor. […] The plate is then resealed with aluminum seal and stored on dry ice until analyzed as described below.
The above described assays are analyzed by mass spectrometry according to one of the following two procedures: […]
After another 30 minute equilibration time, a blank batch (i.e., buffer) is run to ensure equipment is operating properly. […] The method is then run and masses of each individual well recorded. […]
The masses and peak intensities of KRAS G12C protein species are measured using a Dionex RSLCnano system (Thermo Scientific) connected to a Q Exactive Plus mass spectrometer (Thermo Scientific). […]
The mass spectrometer is operated in profile mode at a resolution of 17500, 5 microscans, using 50 msec max injection time and an AGC target of 1×10^6, and a full mass range from 800-1850 m/z is recorded. […]
In the case of `C=CC(=O)N1CC(n2cnc3c(Nc4c(C)ccc5cn[nH]c45)cncc3c2=O)C1` [Compound 55, 3-(1-acryloylazetidin-3-yl)-8-((6-methyl-1H-indazol-7-yl)amino)pyrido[4,3-d]pyrimidin-4(3H)-one], the Binding % is reported as “+ (+ indicates binding activity up to 5%)”. In the case of `C=CC(=O)N1CC(n2cc(C)c3cncc(Nc4c(C)ccc5[nH]ncc45)c3c2=O)C1` [Compound 57, 2-(1-acryloylazetidin-3-yl)-4-methyl-8-((5-methyl-1H-indazol-4-yl)amino)-2,6-naphthyridin-1(2H)-one], the Binding % is reported as “+ (+ indicates binding activity up to 5%)”. For `C=CC(=O)N1CC(n2cnc3c(Nc4cc(O)cc5ccccc45)cncc3c2=O)C1` [Compound 56, 3-(1-acryloylazetidin-3-yl)-8-((3-hydroxynaphthalen-1-yl)amino)pyrido[4,3-d]pyrimidin-4(3H)-one], the Binding % was “+ (+ indicates binding activity up to 5%)”.
